Measurements reported in patent US20130143969A1 (THE OHIO STATE UNIVERSITY, priority 2010, published 2013).

Legend:
DNMT1 = experiment: Ex vivo DNMT1 mRNA and protein in AML patient primary blast cells; assay type: cell-based, human
Description: (§1) Cell Cycle and Apoptosis Analysis: MV4-11, ML-1, HL-60 and K562 leukemia cell lines were cultured in RPMI medium (VWR International, Inc., West Chester, Pa.) supplemented with 10% fetal bovine serum (Invitrogen, Carlsbad, Calif.) and 1% (v/v) penicillin/streptomycin (Invitrogen Life Technologies; Carlsbad, Calif.) antibiotic solution at 37° C. in an incubator under 5% CO2 atmosphere. […] The cell cycle and apoptosis of MV4-11 cells was analyzed on a BD FACS Calibur (Beckman Coulter, Fullerton, Calif.) according to the standard protocol provided by the manufacturer.
(§2) Cells or tumor tissues were homogenized and lysed in ice-cold lysis buffer (20 mM, pH 7.0 HEPES, 150 mM NaCl, 0.1% NP40 supplemented with 1 mM β-glycerophosphate, 1 mM Na3VO4, 1 mM NaF, 1 mM benzamide and 1 mM phenylmethylsulfonyl fluoride) with protease inhibitors (Protease Inhibitor cocktail Set III, Calbiochem-Novabiochem Corporation, La Jolla, Calif.), and incubated on ice for 20 mM. […] The immunoblotted proteins were detected by ECL reagent (GE Healthcare Bio-Sciences Corp., Piscataway, N.J.).
Quantitative RT-PCR was used to quantify the mRNA levels of DNMT1, DNMT3a, DNMT3b, p15INK4B and p21. […] Quantitative real-time PCR reactions were performed in triplicate using Taqman gene expression assay (Applied Biosystems) with an ABI prism 7700 detector (Applied Biosystems). […]

DNMT3a = experiment: Western blot of DNMT3a protein in MV4-11 cells; assay type: cell-based
Description: as §1, §2

in vivo = conditions: CD2F1, mouse, in vivo
Source text: Extracts of bio-matrices were subjected to HPLC mass spectrometric analysis.

[1] = test system: MV4-11 leukemia cell-engrafted animal model; experiment: Xenograft animal model, anti-tumor growth activity; assay type: in vivo, athymic nu/nu mice
Description: Female athymic nu/nu mice (4-6 weeks old, 18-22 g) were obtained from Charles River Laboratory (Wilmington, Mass.) and acclimated for 1 week in a pathogen-free enclosure before start of study. Animals were given sterile rodent chow and water ad libitum and were housed in sterile filter-top cages with 12 hour light/dark cycles. All experiments were conducted in accordance with the guidelines of the Association for Assessment and Accreditation of Laboratory Animal Care International. MV4-11 cells (5×10^6 cells per mouse) were suspended with 50% Matrigel (Becton Dickinson) and subcutaneously implanted into both right and left flanks of the athymic nu/nu mice. When tumors were grown between 100 to 200 mm^3, treatments were initiated. Mice were randomly assigned into two cohorts for the anti-tumor growth activity studies, with 6 mice per group. […] Tumor volume was calculated by using the equation V=2×A×B^2/3, where A is the longer (horizontal as width) diameter (mm) and B is the shorter (perpendicular as depth) diameter (mm) and expressed in cubic millimeter. After 4 weeks, mice were euthanized and tumor tissues were excised, snapfrozen in liquid nitrogen, weighed and stored in a −80° C. freezer until analysis.

MV4-11 cells = experiment: Cell cycle distribution by flow cytometry; assay type: cell-based; conditions: 10 μM curcumin, 48 hour
Description: as §1, with “atmosphere. For the ex-vivo studies, mononuclear cells obtained from bone marrow (BM) of patient with AML were prepared by Ficoll-Hypaque (Nygaard) gradient centrifugation and cultured with serum-free expansion medium (SFEM) (StemCell technologies, Vancouver, BC) supplemented with GM-CSF (50 ng/ml), IL-3 (20 ng/ml), IL-6 (20 ng/ml) and SCF ([…]).” for “atmosphere.”

[2] = In-vitro stability of curcumin in mouse plasma at 37° C; assay type: in vitro ADME
Source text: Therefore, all mouse blood and plasma samples have to be processed on ice to avoid potential degradation for its pharmacokinetic studies.

[3] = test system: p15^INK4B promoter region; experiment: DNA methylation analysis of the p15INK4B promoter region (LC-MS/MS); assay type: cell-based; conditions: MV4-11 cells, 10 μM curcumin, 72 hours
Description: Genomic DNA isolated from MV4-11 cells was treated with bisulfite using the Epi methylation Kit (Qiagen, Minneapolis, Minn.) according to the instruction from the manufacturer and followed by PCR amplification as follows. The sequences of p15^INK4B primers were: forward 5′-GGGAGGGTAATGAAGTTGAGTTTA-3′ (SEQ ID NO. 1), and reverse 5′-ACCCTAAAACCCCAACTACCTAAAT-3′ (SEQ ID NO. 2). PCR amplifications were performed as follows: 95° C. for 5.5 min, 55° C. for 30s for 5 cycles, and 52° C. for 30 s for 38 cycles, 72° C. for 30s for 38 cycles, with a final step at 72° C. for 1 min. PCRs were carried out in a 100 μl volume containing 10 μl of buffer (10×), 2 μL of each primer (10 μM), 2 μL of (10 mM) dNTPs, 2 U of Platinum Taq DNA polymerase (Invitrogen, Carlsbad, Calif.), 70.6 μL ddH2O and 10 μL of bisulfite treated DNA in a GeneAmp 9700 thermal cycler (Perkin-Elmer, Norwalk, Conn.). PCR products were purified using QIAquick columns and eluted in water. A 500 ng aliquot of the PCR product was incubated with 25 UM. […] Fully methylated PCR products were purified using the QIAquick PCR Purification kit (Qiagen, Minneapolis, Minn.), according to the manufacturer's instructions and 200 ng of the purified DNA was hydrolyzed and the concentrations of 5mdC and 2dC in the hydrolysate were measured by LC-MS/MS using the conditions as described previously.

[4] = day 29 after the treatment, i.p. 100 mg/kg

## COc1cc(/C=C/C(=O)CC(=O)/C=C/c2ccc(O)c(OC)c2)ccc1O [curcumin]
DNMT1
  DNMT1 mRNA: down-regulate
  DNMT1 protein level: down-regulate
DNMT3a
  DNMT3a protein level reduction: 50%
In vivo
  concentration at 10 min: 1.62 µg/mL
  concentration at 20 min: 1.62 µg/mL
  concentration at 30 min: 2.45 µg/mL
  concentration at 45 min: 0.661 µg/mL
  concentration at 60 min: 0.448 µg/mL
  concentration at 90 min: 0.135 µg/mL
  concentration at 120 min: 0.231 µg/mL
  concentration at 240 min: 0.169 µg/mL
  concentration at 480 min: 0.0583 µg/mL
[1]; MV4-11 engrafted nude mice (summary)
  tumor size decrease: about 65%
[1]; [4]
  reduction of tumor size: 3854 mm^3
  reduction of tumor weight: 65%
[1]; i.p. 100 mg/kg five days a week, 4 weeks
  body weight: No significant weight loss
[1]; i.p. 100 mg/kg, linear mixed effect model
  decrease of tumor growth rate compared with control: 142.5 mm^3 per day
[1]; pilot study
  life span of MV4-11 engrafted nude mice: 6 weeks
[1]; treatment group
  average tumor weight: 3.6 g
MV4-11 cells
  cell population in G0/G1 phase: 52.0%
  cell population in G2/M phase: 8.0%
  cell population in S phase: 16.1%
  cell population in SubG1 phase: 24.9%
[2]
  half-life: 23.6 min
[2]; by 4 hour
  curcumin level (below detection limit): < 1 ng/mL
[2]; in 2 hours
  curcumin decomposed: more than 97%
[3]
  decrease of p15INK4B promoter methylation level: about 40%
